Legend:
Assay type in all cases: in vivo
Monochoria vaginalis = assay: Test Example 1: herbicidal activity, application before weed generation in submerged conditions; details: Application herbicide amount 320 g/ha; Seventeenth Table
Summary of the method: (§1)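 Water-diluted emulsion formulation is applied onto flood water (4 cm deep) covering alluvial soil on the day weed seeds are sown, after transplanting 2.5 leaf stage rice. Rates are expressed per hectare. Injury or control is graded 0–5 three weeks later.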

Scirpus juncoides = assay: as above; details: Application herbicide amount 320 g/ha; Seventeenth Table
Summary of the method: as §1

[1] = test system: Echinochloa oryzacola Vasing.; assay: as above; details: Application herbicide amount 320 g/ha; Seventeenth Table
Summary of the method: as §1

[2] = test system: transplanted Oryza sativa; assay: Test Example 1: effect on crop, application before weed generation in submerged conditions; details: Application herbicide amount 320 g/ha; Seventeenth Table
Summary of the method: as §1

[3] = test system: directly sowed Oryza sativa; assay: Test Example 4: effect on crop by application to foliage (diluvial soil, plastic box); details: for d (directly sowed Oryza sativa) effect on crop: application to foliage, application herbicide amount 320 g/ha
Summary of the method: (§2)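 Greenhouse plants (25° C. to 30° C., 14 d, diluvial soil) receive a foliar spray of water-diluted emulsifiable formulation at defined g/ha. Grading after 3 weeks uses a six-step herbicidal-ratio scale, with 4 covering 70% to <90% and 1 covering 5% to <20%.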

Brassica campestris L. = assay: as above; details: for g (Brassica campestris L.) effect on crop: application to foliage, application herbicide amount 320 g/ha
Summary of the method: as §2

Zea mays = assay: as above; details: for b (Zea mays) effect on crop: application to foliage, application herbicide amount 320 g/ha
Summary of the method: as §2

Triticum aestivum = assay: as above; details: for e (Triticum aestivum) effect on crop: application to foliage, application herbicide amount 320 g/ha
Summary of the method: as §2

Glycine max = assay: as above; details: for c (Glycine max) effect on crop: application to foliage, application herbicide amount 320 g/ha
Summary of the method: as §2

[4] = test system: Beta vulgaris ssp. vulgaris; assay: as above; details: for f (Beta vulgaris ssp. vulgaris) effect on crop: application to foliage, application herbicide amount 320 g/ha
Summary of the method: as §2

Alopecurus myosuroides = assay: Test Example 4: herbicidal effect by application to foliage (diluvial soil, plastic box); details: for J (Alopecurus myosuroides) herbicidal effect: application to foliage, application herbicide amount 320 g/ha
Summary of the method: as §2

Setaria viridis = assay: as above; details: for G (Setaria viridis) herbicidal effect: application to foliage, application herbicide amount 320 g/ha
Summary of the method: as §2

Abutilon theophrasti = assay: as above; details: for M (Abutilon theophrasti) herbicidal effect: application to foliage, application herbicide amount 320 g/ha
Summary of the method: as §2

Apera spica-venti. = assay: as above; details: for L (Apera spica-venti.) herbicidal effect: application to foliage, application herbicide amount 320 g/ha
Summary of the method: as §2

Avena fatua = assay: as above; details: for I (Avena fatua) herbicidal effect: application to foliage, application herbicide amount 320 g/ha
Summary of the method: as §2

[5] = test system: Echinochloa crus-galli var. crus-galli; assay: as above; details: for H (Echinochloa crus-galli var. crus-galli) herbicidal effect: application to foliage, application herbicide amount 320 g/ha
Summary of the method: as §2

Chenopodium album = assay: as above; details: for O (Chenopodium album) herbicidal effect: application to foliage, application herbicide amount 320 g/ha
Summary of the method: as §2

Galium spurium = assay: as above; details: for Q (Galium spurium) herbicidal effect: application to foliage, application herbicide amount 320 g/ha
Summary of the method: as §2

Veronica persica = assay: as above; details: for R (Veronica persica) herbicidal effect: application to foliage, application herbicide amount 320 g/ha
Summary of the method: as §2

Lolium multiflorum Lam. = assay: as above; details: for K (Lolium multiflorum Lam.) herbicidal effect: application to foliage, application herbicide amount 320 g/ha
Summary of the method: as §2

Digitaria ciliaris = assay: as above; details: for F (Digitaria ciliaris) herbicidal effect: application to foliage, application herbicide amount 320 g/ha
Summary of the method: as §2

[6] = Application herbicide amount 320 g/ha, effect on crop
[7] = Application herbicide amount 320 g/ha

Row | Compound | C: Monochoria vaginalis (herbicidal effect grade) (Monochoria vaginalis) | B: Scirpus juncoides (herbicidal effect grade) (Scirpus juncoides) | A: Echinochloa oryzicola Vasing. (herbicidal effect grade) [1] | a: transplanted Oryza sativa (effect on crop grade) [2] | d (directly sowed Oryza sativa) effect on crop [3] | g (Brassica campestris L.) effect on crop (Brassica campestris L.) | b (Zea mays) effect on crop (Zea mays) | e (Triticum aestivum) effect on crop (Triticum aestivum) | c (Glycine max) effect on crop (Glycine max) | f (Beta vulgaris ssp. vulgaris) effect on crop [4] | J (Alopecurus myosuroides) herbicidal effect (Alopecurus myosuroides) | G (Setaria viridis) herbicidal effect (Setaria viridis) | M (Abutilon theophrasti) herbicidal effect (Abutilon theophrasti) | L (Apera spica-venti.) herbicidal effect (Apera spica-venti.) | I (Avena fatua) herbicidal effect (Avena fatua) | H (Echinochloa crus-galli var. crus-galli) herbicidal effect [5] | O (Chenopodium album) herbicidal effect (Chenopodium album) | Q (Galium spurium) herbicidal effect (Galium spurium) | R (Veronica persica) herbicidal effect (Veronica persica) | K (Lolium multiflorum Lam.) herbicidal effect (Lolium multiflorum Lam.) | further results
1 | CCSc1nnc2c(C(=O)Nc3nnc(C)o3)ccc(C(F)(F)F)n12 [1-032] | 2 (Herbicidal ratio of 20% or more and less than 40%) | 3 (Herbicidal ratio of 40% or more and less than 70%) | 5 (Herbicidal ratio of 90% or more (almost completely withered)) | 2 (Herbicidal ratio of 20% or more and less than 40%) | 4 (Herbicidal ratio of 70% or more and less than 90%) | 4 (Herbicidal ratio of 70% or more and less than 90%) | 0 (Herbicidal ratio of 5% or less (almost no effect)) | 1 (Herbicidal ratio of 5% or more and less than 20%) | 0 (Herbicidal ratio of 5% or less (almost no effect)) | 5 (Herbicidal ratio of 90% or more (almost completely withered)) | 1 (Herbicidal ratio of 5% or more and less than 20%) | 5 (Herbicidal ratio of 90% or more (almost completely withered)) | 5 (Herbicidal ratio of 90% or more (almost completely withered)) | 2 (Herbicidal ratio of 20% or more and less than 40%) | 2 (Herbicidal ratio of 20% or more and less than 40%) | 5 (Herbicidal ratio of 90% or more (almost completely withered)) | 5 (Herbicidal ratio of 90% or more (almost completely withered)) | 2 (Herbicidal ratio of 20% or more and less than 40%) | 4 (Herbicidal ratio of 70% or more and less than 90%) | 1 (Herbicidal ratio of 5% or more and less than 20%) | F (Digitaria ciliaris) herbicidal effect (Digitaria ciliaris): 5 (Herbicidal ratio of 90% or more (almost completely withered))
2 | Cc1nnc(NC(=O)c2ccc(C(F)(F)F)n3cnnc23)o1 [1-001] | 2 (Herbicidal ratio of 20% or more and less than 40%) | 2 (Herbicidal ratio of 20% or more and less than 40%) | 3 (Herbicidal ratio of 40% or more and less than 70%) | 0 (Herbicidal ratio of 5% or less (almost no effect)) | 3 (Herbicidal ratio of 40% or more and less than 70%) | 4 (Herbicidal ratio of 70% or more and less than 90%) | 0 (Herbicidal ratio of 5% or less (almost no effect)) | 1 (Herbicidal ratio of 5% or more and less than 20%) | 0 (Herbicidal ratio of 5% or less (almost no effect)) | 4 (Herbicidal ratio of 70% or more and less than 90%) | 1 (Herbicidal ratio of 5% or more and less than 20%) | 3 (Herbicidal ratio of 40% or more and less than 70%) | 3 (Herbicidal ratio of 40% or more and less than 70%) | 1 (Herbicidal ratio of 5% or more and less than 20%) | 1 (Herbicidal ratio of 5% or more and less than 20%) | 4 (Herbicidal ratio of 70% or more and less than 90%) | 5 (Herbicidal ratio of 90% or more (almost completely withered)) | 4 (Herbicidal ratio of 70% or more and less than 90%) | 4 (Herbicidal ratio of 70% or more and less than 90%) | 1 (Herbicidal ratio of 5% or more and less than 20%) | F (Digitaria ciliaris) herbicidal effect (Digitaria ciliaris): 4 (Herbicidal ratio of 70% or more and less than 90%)
3 | COc1cccc(-c2nnc3c(C(=O)Nc4nnc(C)o4)ccc(C(F)(F)F)n23)c1 [1-046] | 3 (Herbicidal ratio of 40% or more and less than 70%) | 3 (Herbicidal ratio of 40% or more and less than 70%) | 5 (Herbicidal ratio of 90% or more (almost completely withered)) | 2 (Herbicidal ratio of 20% or more and less than 40%) | 3 (Herbicidal ratio of 40% or more and less than 70%) | 4 (Herbicidal ratio of 70% or more and less than 90%) | 1 (Herbicidal ratio of 5% or more and less than 20%) | 0 (Herbicidal ratio of 5% or less (almost no effect)) | 2 (Herbicidal ratio of 20% or more and less than 40%) | 5 (Herbicidal ratio of 90% or more (almost completely withered)) | 0 (Herbicidal ratio of 5% or less (almost no effect)) | 5 (Herbicidal ratio of 90% or more (almost completely withered)) | 5 (Herbicidal ratio of 90% or more (almost completely withered)) | 1 (Herbicidal ratio of 5% or more and less than 20%) | 1 (Herbicidal ratio of 5% or more and less than 20%) | 5 (Herbicidal ratio of 90% or more (almost completely withered)) | 5 (Herbicidal ratio of 90% or more (almost completely withered)) | 2 (Herbicidal ratio of 20% or more and less than 40%) | 4 (Herbicidal ratio of 70% or more and less than 90%) | 0 (Herbicidal ratio of 5% or less (almost no effect)) | F (Digitaria ciliaris) herbicidal effect (Digitaria ciliaris): 5 (Herbicidal ratio of 90% or more (almost completely withered))
4 | Cc1nnc(NC(=O)c2ccc(C(F)(F)F)n3c(N(C)c4ccccc4)nnc23)o1 [1-086] | 4 (Herbicidal ratio of 70% or more and less than 90%) | 4 (Herbicidal ratio of 70% or more and less than 90%) | 5 (Herbicidal ratio of 90% or more (almost completely withered)) | 5 (Herbicidal ratio of 90% or more (almost completely withered)) |  |  |  |  |  |  |  |  |  |  |  |  |  |  |  |  | d [3, 6]: 1 (Herbicidal ratio of 5% or more and less than 20%); g (Brassica campestris L.; [6]): 4 (Herbicidal ratio of 70% or more and less than 90%); b (Zea mays; [6]): 1 (Herbicidal ratio of 5% or more and less than 20%); e (Triticum aestivum; [6]): 0 (Herbicidal ratio of 5% or less (almost no effect)); c (Glycine max; [6]): 1 (Herbicidal ratio of 5% or more and less than 20%); f [4, 6]: 5 (Herbicidal ratio of 90% or more (almost completely withered)); J (Alopecurus myosuroides; [7]): 0 (Herbicidal ratio of 5% or less (almost no effect)); G (Setaria viridis; [7]): 4 (Herbicidal ratio of 70% or more and less than 90%); M (Abutilon theophrasti; [7]): 5 (Herbicidal ratio of 90% or more (almost completely withered)); L (Apera spica-venti.; [7]): 0 (Herbicidal ratio of 5% or less (almost no effect)); I (Avena fatua; [7]): 0 (Herbicidal ratio of 5% or less (almost no effect)); H [5, 7]: 5 (Herbicidal ratio of 90% or more (almost completely withered)); O (Chenopodium album; [7]): 5 (Herbicidal ratio of 90% or more (almost completely withered)); Q (Galium spurium; [7]): 1 (Herbicidal ratio of 5% or more and less than 20%); R (Veronica persica; [7]): 4 (Herbicidal ratio of 70% or more and less than 90%); K (Lolium multiflorum Lam.; [7]): 0 (Herbicidal ratio of 5% or less (almost no effect)); F (Digitaria ciliaris; [7]): 5 (Herbicidal ratio of 90% or more (almost completely withered))

— US9708314B2, “Heterocyclic amide compound” (NISSAN CHEMICAL INDUSTRIES, LTD., priority 2013, dated 2017)
